Experiment [1] relates to severe spinal cord contusion injury in the rat. The experiment is described as follows: Explorative rearing test after severe spinal cord contusion injury. The settings on record: Example 1; 20 mg/kg/day by gavage for 7 days. The class given is in vivo. The protocol: Thirteen week-old female Lewis rats (Charles River, Sulzfeld Germany) were housed under a 12:12 h dark/light regime and allowed free access to water and food. After one week of habituation the animals underwent general anesthesia with a mixture of isoflurane and air (induction: 5% isoflurane, maintenance: 2.2% isofluorane). A Th10 laminectomy was performed without rupturing the dura and a severe contusive SCI (25 gem NYU/MASCIS II impactor) {Gruner, 1992 #3} was induced. After suturing muscle and skin, a subcutaneous (s.c.) injection of 5 ml of Ringers Lactate was given. Bladders were emptied manually 2 times a day until spontaneous voiding returned (usually within 1 week). The lesion severity was verified by the impact velocity and contusion depth of the impactor rod. Animals with an impact velocity error >5% were excluded from further analysis. After injury, individual rats were randomly assigned into a treatment group. The following groups were used:
When placed in a Plexiglas cylinder (18 cm diameter×35.0 cm height), animals spontaneously rear and contact the walls with their forepaws. Numbers, duration and types of rears were analyzed during the 3-min recorded observation period in the cylinder (Himes et al., 2006; Shumsky et al., 2003). A mirror was placed at an angle behind the cylinder so that the forelimbs could be viewed at all times. The testing session was videotaped, and rearing behaviour was scored blindly at a later date.
Different types of rears of increasing heights were observed: • LEVEL 1: Crouch—Animals lifted both forepaws off the ground up to 10 cm; • LEVEL 2: Rear—Animals reared and extended the trunk with the hindlimbs flexed reaching a height between 10 and 15 cm; • LEVEL 3: Stand—Animals reared and extended the trunk with the hindlimbs extended reaching a height over 15 cm.
Occasionally an animal progressed through several types of rears before touching down, in which case the time the animal spend in each rearing height was measured by counting the single video frames. […]

Experiment [2] has the same test system. The experiment is described as follows: BBB open field locomotor rating scale after severe spinal cord contusion injury. The class given is in vivo. The settings on record: Example 2; 20 mg/kg/day by gavage for 7 days; effect distinct from DPO 7 to DPO 63 (ANOVA-RM p=0.002); vehicle 8.3.
Protocol: The BBB score is scaled from 0 to 21 points, a BBB score of 0 represents a complete paralysis of the hind limbs and a BBB score of 21 represents normal locomotion. […]
The BBB locomotor rating scale was used according to the present disclosure to assess general locomotor performance. The score was assessed before injury and at 1, 3, 5, 7, 14, 21, 35, 42, 49, 56 and 63 days post operation (dpo) by 2 blinded observers.

Regarding `Cc1oncc1C(=O)Nc1ccc(C(F)(F)F)cc1` [Leflunomide, N-(4-trifluoromethylphenyl)-5-methylisoxazol-4-carboxamide], in experiment [1], the “exploring time of healthy control animals at LEVEL 3 (>15 cm) compared with treated animals” value is given as “significantly longer”; the “rearing attempts (time and height reached by forepaws) vs vehicle control animals” value is “longer in time and that the forepaws reached higher levels”; the “significantly less time in LEVEL 2 (10-15 cm) when compared to healthy control animals” value is reported as “this is not the case”.
As to `Cc1cc(NC(=O)/C(C#N)=C(\O)C2CC2)ccc1C(F)(F)F` [HR325, 1(3-methyl-4-trifluoromethylphenyl-carbamoyl)-2-cyclopropyl-2oxo-propionitrile], in experiment [2], the “BBB score at steady state” value is listed as “around 10”.

Values taken from patent US8957098B2 (ALGIAX Pharmaceuticals GmbH, priority 2010, dated 2015).
